The nature of the data set: gradient 5% acetonitrile 3 min, to 50% in 2 min, to 85% in 15 min, held 3 min, 100 µL/min. The settings on record: column: Zorbax Extend-C18 2.1 x 50 mm; eluents: water / acetonitrile, 0.1% formic acid. In short, it runs like this:
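Each retention time is based on an adduct peak selected computationally and verified by manual inspection. Measurements used HPLC–quadrupole time-of-flight mass spectrometry in positive and negative ionization mode on mixtures of ~100 pure standards. Chromatography ran on a Zorbax Extend-C18 column (2.1 × 50 mm, 1.8 μm) at 100 μL/min with water and acetonitrile, each containing 0.1% formic acid, and dead and dwell volumes of 40 μL and 900 μL.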
As for `CCOC(=O)C1CCN(C(=O)c2sc(Nc3ccc(F)cn3)nc2C)CC1`, the RP-LC retention time came out at 771 s.

As for `Cc1ccc(NC(=O)N2CCC[C@@H]2C(=O)NCc2csc(-c3ccccc3)n2)cc1C`, the RP-LC retention time was determined as 861 s. As for `CCn1cc(-c2ccc(Cl)cc2)cc1C(=O)N(C)C`, the RP-LC retention time came to 957 s. `CCOC(=O)C1=C(CNc2ccc(F)cc2F)NC(=O)NC1c1ccccc1` (stereo not given) showed an RP-LC retention time of 886 s. On to `O=C(CCCc1ccccc1)N1CCN(c2nc(CN3CCOCC3)cs2)CC1`, for which the RP-LC retention time was 639 s. With `O=C(c1ccoc1)N1CCN(C(=O)c2nnn3c2COC(c2ccc(Cl)cc2)C3)CC1` (stereo not given) the figure was 838 s. The same measure for `COc1ccc(Cn2c(C)c(CNCc3cccnc3)c(C(=O)O)c2C)cc1`: 597 s; for `COc1ccc2[nH]c3c(c2c1)CCNC31CCN(S(=O)(=O)c2c(C)noc2C)CC1`: 675 s; for `Cc1ccc(-n2c(=O)c3sccc3n(Cc3nc(-c4ccc(C)c(C)c4)no3)c2=O)cc1`: 1150 s.

`COc1ccc(-c2ccc(=O)n(Cc3nc(-c4ccc(OC(C)C)cc4)no3)n2)cc1` showed an RP-LC retention time of 1120 s. With `Cc1nn(-c2ccccc2)c2c1-c1sc(C(=O)N3CCN(c4ccccn4)CC3)cc1CC2` the figure was 671 s. With `CC(C)Oc1cccc(NC(=O)C2CCN(S(C)(=O)=O)c3ccccc3O2)c1` (stereo not given) the figure was 830 s; with `Cc1ccc(-c2noc(-c3nc(-c4cccnc4)no3)n2)cc1`, 1090 s; with `O=C(CCc1nc(CSc2nnc(-c3ccccc3)o2)no1)Nc1ccc(Br)cc1`, 967 s. The same measure for `COc1ccc2c(c1)c(CC(=O)OCC(=O)O)c(C)n2C(=O)c1ccc(Cl)cc1`: 958 s; for `COc1ccc(-c2nsc(SCC(=O)N3CCCc4ccccc43)n2)cc1`: 1110 s. With `Cc1nn(C)cc1C(=O)Nc1c(C)n(C)n(-c2ccccc2)c1=O`, the RP-LC retention time is 563 s.

Regarding `CCc1nc(-c2c(C)cc(C)nc2NC(=O)c2cccc(Br)c2)no1`, the RP-LC retention time is 898 s.

In turn, `CCCN1CCN(CCCNc2nc(-c3ccc(OC)cc3)nc3ccccc23)CC1` showed an RP-LC retention time of 576 s.

For `COc1ncccc1CNC(=O)c1cccs1`, the RP-LC retention time was 694 s.

Compound `COc1ccc(-c2cnn3c(C)cc(C)nc23)cc1S(=O)(=O)N1CCN(C2CCCCC2)CC1` had an RP-LC retention time of 690 s.

`COc1ccc(-c2csc(NC(=O)CS(=O)(=O)c3ccc(Cl)cc3)n2)cc1OC` gave an RP-LC retention time of 926 s.

With `CCn1cc(CN2CCn3c(nnc3[C@@H]3C[C@@H](O)CN3Cc3cccnc3)C2)c(C)n1`, the RP-LC retention time came out at 513 s.

As to `O=C(Nc1cccc(Cl)c1)N1CCN(c2ncc(C(F)(F)F)cc2Cl)CC1`, the RP-LC retention time came to 1190 s. With `COc1ccc(S(=O)(=O)N2CCCC(C(=O)NCCC3=CCCCC3)C2)cc1Cl` (stereo not given) the figure was 1070 s; with `Cc1cc(C)nc(Nc2nc(-c3ccccc3)c3ccccc3n2)n1`, 709 s; with `Cc1nnc(-c2ccc3ccn(CC(=O)NCCc4ccc(Cl)cc4)c3c2)o1`, 824 s. With `O=C(CCNc1c(-c2ccc(F)cc2)nc2cnccn12)Nc1ccc2c(c1)OCCO2` the figure was 704 s; with `Cc1nnc2ccc(-c3noc(Cc4cccc(Cl)c4)n3)cn12`, 871 s; with `CCCc1cc(N2CCN(C(=O)c3ccn(CC)n3)CC2)nc2nnc(CC)n12`, 616 s. The same measure for `CCc1nc(-c2csc(S(=O)(=O)N3CCC(C(=O)Nc4ccc(C)c(F)c4)CC3)c2)no1`: 1060 s.

Consider `CCOC(=O)c1nnn(C(CC)C(=O)Nc2ccc(OC)cc2)c1C(=O)OCC` (stereo not given), for which the RP-LC retention time came to 814 s. With `Cc1cc(C)cc(NC(=O)Cc2csc3nc(-c4ccccc4)cn23)c1` the figure was 880 s; with `COc1ccc(CNC(=O)c2nc(N3CCOCC3)c3ccccc3n2)cc1`, 662 s. With `CN1CCN(S(=O)(=O)c2ccc(F)c(Cl)c2)CC1` the figure was 530 s; with `CCN(CC)c1ccc(-c2nc3ncccn3c2NCc2ccccc2)cc1`, 712 s; with `Cc1nn(CC(=O)N2CCCC(C)C2)c(=O)c2nc(-c3ccccc3)sc12` (stereo not given), 875 s.

For `COc1cc(C(C)=O)ccc1OCCCN1CCC(c2noc3cc(F)ccc23)CC1`, the RP-LC retention time was 720 s. The same measure for `COc1cccc(-c2ccnc3nc(CCc4ccccc4)nn23)c1`: 970 s.

`Cc1nn(CC(=O)NCCN2CCCCC2)c(=O)c2nc(-c3ccccc3)sc12` gave an RP-LC retention time of 623 s. In the case of `Nn1nnc2ccccc21`, the RP-LC retention time was determined as 651 s. With `CCC(=O)NCc1csc(C2CCCN(C(=O)CC(C)(C)C)C2)n1` (stereo not given) the figure was 703 s.

`CCOc1cc(C(=O)Nc2c(-c3ccccc3)nc3cc(C)ccn23)cc(OCC)c1OCC` yielded an RP-LC retention time of 775 s. With `CC(C)Oc1ccccc1CN1CCC2(CC1)CN(C)CC2c1nnc(C(C)C)o1` (stereo not given) the figure was 569 s.

As for `COc1cc(OC)cc(-c2nnc(Cc3nc(-c4ccccc4C)no3)o2)c1`, the RP-LC retention time stood at 1060 s.

As to `CC(=O)N1CCc2cc(CNC(=O)c3ccnn3C)ccc21`, the RP-LC retention time was determined as 622 s. The same measure for `COc1ccc(-c2noc(-c3nn(-c4ccc(C)cc4)ccc3=O)n2)cc1OC`: 827 s; for `Cc1noc(-c2cccc(OC3CN(S(=O)(=O)c4c(C)nn(C)c4C)C3)c2)n1`: 850 s. As for `COc1ccc(-n2ccc(=O)c(-c3nc(-c4ccc(Cl)cc4)no3)n2)cc1`, the RP-LC retention time is 938 s.

On to `Cn1ncc(NC(=O)c2ccc(Br)cc2)c(N2CCOCC2)c1=O`, for which the RP-LC retention time amounted to 814 s.

`O=C(Cc1nnc(-c2ccccc2)o1)N1CCSCC1` returned an RP-LC retention time of 698 s. Consider `O=C(NCCN1CCOCC1)C1=C2CCCN2c2ccc(F)cc2S1(=O)=O`, for which the RP-LC retention time is 586 s. With `COc1ccccc1NC(=O)C1CC(=O)N(CCc2c[nH]c3ccc(Cl)cc23)C1` (stereo not given) the figure was 829 s.

Compound `CCn1c(=O)sc2cc(S(=O)(=O)N3CCC(C(=O)NC4CCCc5ccccc54)CC3)ccc21` (stereo not given) registered an RP-LC retention time of 957 s. Compound `CCCNC(=O)N1CC(c2nc(-c3ccccc3)no2)C2(CCOCC2)C1` (stereo not given) came in with an RP-LC retention time of 770 s.

In turn, `CC(CCc1ccccc1)NC(C)C(O)c1ccc(O)cc1` (stereo not given) returned an RP-LC retention time of 712 s. As for `CCOc1ccc(N(C)C(=O)Cn2cccc2-c2nnc(C3CC3)o2)cc1`, the RP-LC retention time is 888 s. In turn, `Oc1ccccc1-c1nc2ccc(Cl)cn2c1Nc1ccc2c(c1)OCCO2` came in with an RP-LC retention time of 879 s. The same measure for `O=C(CN1CCN(Cc2ccccc2F)C1=O)NCc1ccc(F)cc1`: 808 s; for `CC1(C)CC(=O)C(CC(=O)c2ccccc2)=C(NN=C(N)N)C1`: 666 s. The same measure for `O=C(Nc1nc2c(F)cc(F)cc2s1)C1CCCN(S(=O)(=O)c2cccs2)C1` (stereo not given): 767 s; for `CCN(CC)C(=O)Cn1ccc2ccc(-c3nnc(C)o3)cc21`: 718 s. The same measure for `Cc1ccc(C)c(NC(=O)C(C)Oc2cc(C(F)(F)F)c3c(C)nn(C)c3n2)c1` (stereo not given): 1040 s; for `O=C(Nc1ccc(Cl)cc1F)C1CCCN(C(=O)Cc2cccc3ccccc23)C1` (stereo not given): 1050 s. The compound `Nc1cc(C2CCN(S(=O)(=O)c3cccc(F)c3)CC2)no1` registered an RP-LC retention time of 755 s. With `COc1ccccc1-c1nnc(-c2cc(S(=O)(=O)N3CCCCCC3)ccc2Cl)o1` the figure was 1130 s; with `O=C1NCCCCCCN(C(=O)Nc2ccccc2F)[C@H]2CCC[C@@H]12`, 805 s.

Consider `O=C(NC1CCCC1)c1ccc2c(c1)CC(=O)N2Cc1ccc(F)cc1`, for which the RP-LC retention time stood at 824 s. As for `COc1ccccc1-c1noc(Cn2cnc3c(cnn3-c3ccc(Br)cc3)c2=O)n1`, the RP-LC retention time came out at 1060 s. Consider `Cc1cc(C(=O)Nc2ccc(-c3nc(Cn4cccn4)c(C)o3)cc2)no1`, for which the RP-LC retention time was determined as 823 s. Consider `Cn1cc(C2=CCN(S(=O)(=O)c3cccc(F)c3)CC2)c2cccnc21`, for which the RP-LC retention time came out at 969 s. The same measure for `CCc1ccc(NC(=O)N2CCc3nc(-c4ccc(F)cc4)ncc3C2)cc1`: 1040 s; for `O=C(CSc1nccn1Cc1ccco1)Nc1ccccc1F`: 600 s; for `COc1ccc(-c2nnc(SCc3cccc(C(F)(F)F)c3)o2)cc1OC`: 992 s.

`Cc1ccc(S(=O)(=O)Cc2noc(-c3ccc(Cl)cc3)n2)cc1` came in with an RP-LC retention time of 1040 s. The compound `COc1cccc(CNC(=O)c2cc3cn(C4CC4)cc3s2)c1OC` displayed an RP-LC retention time of 507 s. The same measure for `Cc1noc(C)c1S(=O)(=O)N1CCC(CCOc2ccccc2)C1` (stereo not given): 1080 s; for `CC1=C(C(=O)OCCCc2ccccc2)C(c2cccs2)NC(=O)N1` (stereo not given): 882 s. With `CNC(=O)N1CCCC(c2cccc(C(=O)NCc3ccc(Br)cc3)c2)C1` (stereo not given) the figure was 830 s; with `O=C(c1ccccc1F)N1CCCCC1c1nncn1CC1CC1` (stereo not given), 698 s.

(Values after the METLIN SMRT retention time set (Domingo-Almenara et al. 2019).)
